Test results reported in publication PMC8949503, “Radiosynthesis and Preclinical Evaluation of Bispecific PSMA/FAP Heterodimers for Tumor Imaging” (Pharmaceuticals, 2022).

Columns and labels:
[1] = test system: A549-FAP cells; experiment: cell uptake and blocking study in A549-FAP cells; type: cell-based; settings: for cell uptake, blocked: +DOTA-FAPI-04 (2.3 μM)
Protocol: PSMA-positive 22Rv1 cells (purchased from Institute of Biochemistry and Cell Biology, Shanghai, China) and stably FAP-transfected A549-FAP cells (acquired using lentiviral infection) were used for the cell-based experiments. The 22Rv1 cells were cultivated in RPMI-1640 medium (Gibco) at 37 °C/5% carbon dioxide, while the A549-FAP cells were cultivated in DMEM medium. Both media were supplemented with 10% heat-inactivated fetal bovine serum (FBS) and 1% penicillin/streptomycin (Gibco). Puromycin (1 µg/mL) was also added to the media to maintain FAP expression.
Cells were seeded in 12-well plates 2 days in advance to achieve a final confluence of approximately 80–90% (4–5 × 10^5 cells/well). The medium was displaced by 1 mL fresh medium without FBS. The method of cell studies was similar to a method reported previously. For the competitive binding experiments, cells were incubated with the known radiotracers ([^18F]FAPI-42 for the FAP receptor and [^18F]AlF-PSMA-BCH for PSMA) in the presence of 7 different concentrations (10^−5–10^−11 M) of the corresponding unlabeled heterodimers or corresponding monomer and incubated for 60 min at 37 °C. In all experiments, the cells were washed twice with PBS, lysed with 1 M NaOH, and counted using a γ-counter. IC50 values were calculated by fitting the data using a nonlinear regression algorithm (implemented in SPSS). For the radioligand binding studies, the cells were incubated for 5, 15, 30, 60, or 120 min at 37 °C after the addition of the heterodimer or corresponding monomeric radiotracer radiotracers. The blocking experiments were determined by adding the corresponding competitors (4.4 μM 2-PMPA for 22Rv1 cells and 2.3 μM DOTA-FAPI-04 for A549-FAP cells). Radioactivity was measured using a γ-counter, normalized to 1 million cells (1 mio cells), and calculated as the percentage of the applied dose (%ID/1 mio cells). For the internalization experiments, the cells were incubated with the radiolabeled compound for 60 min, washed twice with 1 mL PBS, and then incubated for 10 min with 1 mL glycine HCl (1 M, pH 2.2) to detach the extracellular bound tracer. Next, the cells were washed with PBS (2.0 mL) and lysed with 1 M NaOH (1.5 mL). The radioactivity of the acid wash solution (extracellularly bound tracer) and cell lysate (internalized tracer) was assessed separately using a γ-counter. For the efflux experiments, the radioactive medium was removed after 60 min incubation and replaced with non-radioactive medium. At predetermined time points of 15, 30, 60, and 120 min, the cells were washed with 1.0 mL PBS three times and then lysed. The radioactivity of the remaining cells was assessed using a γ-counter. Each experiment was conducted three times with three or four replicates per independent experiment.

[2] = test system: 22Rv1 cells; experiment: efflux in 22Rv1 cells; type: cell-based; settings: 2 h incubation
Protocol: (§1) Cells were seeded in 12-well plates 2 days in advance to achieve a final confluence of approximately 80–90% (4–5 × 10^5 cells/well). The medium was displaced by 1 mL fresh medium without FBS. The method of cell studies was similar to a method reported previously. For the competitive binding experiments, cells were incubated with the known radiotracers ([^18F]FAPI-42 for the FAP receptor and [^18F]AlF-PSMA-BCH for PSMA) in the presence of 7 different concentrations (10^−5–10^−11 M) of the corresponding unlabeled heterodimers or corresponding monomer and incubated for 60 min at 37 °C. In all experiments, the cells were washed twice with PBS, lysed with 1 M NaOH, and counted using a γ-counter. IC50 values were calculated by fitting the data using a nonlinear regression algorithm (implemented in SPSS). […] The blocking experiments were determined by adding the corresponding competitors (4.4 μM 2-PMPA for 22Rv1 cells and 2.3 μM DOTA-FAPI-04 for A549-FAP cells). Radioactivity was measured using a γ-counter, normalized to 1 million cells (1 mio cells), and calculated as the percentage of the applied dose (%ID/1 mio cells). […] The radioactivity of the acid wash solution (extracellularly bound tracer) and cell lysate (internalized tracer) was assessed separately using a γ-counter. […] The radioactivity of the remaining cells was assessed using a γ-counter. […]

[3] = test system: A549-FAP tumor-bearing nude mice; experiment: tissue biodistribution and blocking in A549-FAP tumor-bearing nude mice; type: in vivo; settings: 1 h p.i.
Protocol: (§2) For the biodistribution and micro-PET imaging studies, male BALB/c nude mice (6–8 weeks) were subcutaneously inoculated with 1 × 10^7 22Rv1 or 5 × 10^6 A549-FAP cells in the right shoulder. Mice were imaged or used in the biodistribution studies when the tumor reached 5–10 mm in diameter.
(§3) Mice bearing 22Rv1 or A549-FAP (n = 4 in each group) tumors were euthanized 60 min after intravenous administration of each tracer (740–1480 KBq/mouse). In the blocking group, the same experiment was conducted by co-injecting 50 μg of 2-PMPA for mice bearing 22Rv1 tumors or 50 μg of DOTA-FAPI-04 for mice bearing A549-FAP tumors. The organs of interest and tumors were quickly dissected and weighed. Radioactivity was assessed using a γ-counter and calculated as the percentage injected dose per gram (%ID/g).

[4] = test system: A549-FAP cells; experiment: efflux in A549-FAP cells; type: cell-based; settings: 2 h incubation
Protocol: as §1

[5] = n-octanol/PBS partition coefficient (logD); type: physicochemical; settings: PBS pH 7.4, ambient temperature
Protocol: An aliquot (74 kBq) of [^18F]AlF-PSMA-FAPI-01 or [^18F]AlF-PSMA-FAPI-02 was added to a centrifuge tube containing a mixture of phosphate-buffered solution (PBS, pH 7.4, 5.0 mL) and n-octanol (5.0 mL). The mixture was vigorously vortexed at ambient temperature for 5 min and then centrifuged (10,000 rpm, 5 min). Three samples (each 100 µL) from each phase underwent radioactivity measurement using a γ-counter (CAPRAC-R, Capintec, Inc., Ramsey, NJ, USA).

[6] = test system: A549-FAP tumor xenografts; experiment: dynamic micro-PET imaging in A549-FAP tumor xenografts; type: in vivo; settings: A549-FAP tumor-bearing nude mice, up to 2 h p.i.
Protocol: as §2
Mice bearing xenografted 22Rv1 or A549FAP tumors (n = 3 per group) were anesthetized and placed in the prone position in a micro-PET scanner (Siemens, Erlangen, Germany). Dynamic PET/CT images were acquired 2 h post-injection (p.i.) with the radiotracer (5.55–11.1 MBq). The blocking experiments were performed by co-injecting 3 mg/kg of 2-PMPA for mice bearing 22Rv1 tumors or 3 mg/kg of DOTA-FAPI-04 for mice bearing A549-FAP tumors. The images were reconstructed using a three-dimensional ordered-subset expectation maximum algorithm and converted to %ID/g. Attenuation correction was performed using the unenhanced low-dose CT data. For data analysis, the regions of interest (ROIs) were manually drawn over the tumors and major organs on decay-corrected whole-body coronal images obtained using Inevon Research Workplace 4.1 software.

[7] = test system: 22Rv1 tumor-bearing nude mice; experiment: tissue biodistribution and blocking in 22Rv1 tumor-bearing nude mice; type: in vivo; settings: 1 h p.i.
Protocol: as §2, §3

[8] = co-injected DOTA-FAPI-04 3 mg/kg

## N#C[C@@H]1CC(F)(F)CN1C(=O)CNC(=O)c1ccnc2ccc(OCCCN3CCN(C(=O)CCC(=O)NCCCC[C@H](NC(=O)CN4CCN5CCN(CC4)CC(=O)[O][Al]([18F])[O]C(=O)C5)C(=O)NC[C@H]4CC[C@H](C(=O)N[C@H](Cc5ccc6ccccc6c5)C(=O)NCCCC[C@H](NC(=O)N[C@@H](CCC(=O)O)C(=O)O)C(=O)O)CC4)CC3)cc12 [[^18F]AlF-PSMA-FAPI-02]
[1]; 5 min
  cell uptake: 11.66 ± 0.39 % ID/1 million cells
  cell uptake, blocked: 1.28 ± 0.08 % ID/1 million cells
[1]; 15 min
  cell uptake: 17.03 ± 0.85 % ID/1 million cells
  cell uptake, blocked: 1.29 ± 0.38 % ID/1 million cells
[1]; 30 min
  cell uptake: 23.26 ± 1.59 % ID/1 million cells
  cell uptake, blocked: 1.31 ± 0.16 % ID/1 million cells
[1]; 60 min
  cell uptake: 27.02 ± 2.21 % ID/1 million cells
  cell uptake, blocked: 1.59 ± 0.65 % ID/1 million cells
[1]; 120 min
  cell uptake: 32.55 ± 1.42 % ID/1 million cells
  cell uptake, blocked: 1.71 ± 0.23 % ID/1 million cells
[2]
  cell efflux: lower cellular efflux
[3]
  A549-FAP tumor uptake: 6.47 ± 0.76 %ID/g
  Blood uptake: 1.98 ± 0.46 %ID/g
  Bone uptake: 5.53 ± 0.18 %ID/g
  Brain uptake: 0.11 ± 0.03 %ID/g
  Gall bladder uptake: 2.23 ± 1.07 %ID/g
  Heart uptake: 0.84 ± 0.17 %ID/g
  Kidney uptake: 23.10 ± 7.91 %ID/g
  Liver uptake: 0.81 ± 0.22 %ID/g
  Lung uptake: 1.37 ± 0.22 %ID/g
  Muscle uptake: 1.35 ± 0.36 %ID/g
  Small intestine uptake: 0.84 ± 0.33 %ID/g
  Spleen uptake: 0.51 ± 0.16 %ID/g
  Stomach uptake: 0.83 ± 0.42 %ID/g
[3]; [8]
  A549-FAP tumor uptake, Blocked: 1.11 ± 0.88 %ID/g
  Blood uptake, Blocked: 0.57 ± 0.19 %ID/g
  Bone uptake, Blocked: 3.83 ± 0.02 %ID/g
  Brain uptake, Blocked: 0.07 ± 0.03 %ID/g
  Gall bladder uptake, Blocked: 1.39 ± 0.20 %ID/g
  Heart uptake, Blocked: 0.28 ± 0.07 %ID/g
  Kidney uptake, Blocked: 26.70 ± 10.80 %ID/g
  Liver uptake, Blocked: 0.41 ± 0.12 %ID/g
  Lung uptake, Blocked: 0.90 ± 0.24 %ID/g
  Muscle uptake, Blocked: 0.85 ± 0.39 %ID/g
  Small intestine uptake, Blocked: 0.55 ± 0.29 %ID/g
  Spleen uptake, Blocked: 0.30 ± 0.03 %ID/g
  Stomach uptake, Blocked: 0.37 ± 0.06 %ID/g
[4]
  cell efflux: lower cellular efflux
[5]
  n-octanol/PBS distribution coefficient (logD): −2.04 ± 0.04
[6]
  time–activity curves (micro-PET): rapid uptake and excellent retention in tumors, as well as rapid clearance from non-target organs via the kidneys
[7]
  22Rv1 tumor* uptake: 12.85 ± 2.43 %ID/g
  Kidney* uptake: 27.0 ± 11.9 %ID/g
[7]; co-injected 2-PMPA 3 mg/kg
  22Rv1 tumor* uptake, Blocked: 6.85 ± 1.53 %ID/g
  Kidney* uptake, Blocked: 2.94 ± 0.35 %ID/g
